What was measured:
C57B1/6 male mice [1] = assay: Glucose tolerance test; assay type: in vivo, mouse; conditions: 18 h fasted, vs control
Experimental: (§1) Animals: C57B1/6 male mice were purchased from The Jackson Laboratory (Bar Harbor, Me.) at 6 weeks of age. The mice were initially housed in groups of three in acrylic cages in a room with a 12-hour light/dark cycle and with controlled temperature (22 to 23° C.) and with free access to water. The mice were fed a high fat diet (4.78 kcal/g, 56% energy as fat; Research Diets Inc, Brunswick, N.J.). The composition of the diet has been previously described (15). Body weights were measured three time per week. At 8 weeks of age, the mice were switched to single housing.
(§2) Peptide Injections: Enterostatin was dissolved in 0.1 ml saline (0.9% NaCl w/v), and given as a single dose of either 5 μg or 25 μg/mouse. Either enterostatin or saline (control) was injected intraperitoneally. In the experiments involving insulin, insulin (0.75 mU/g body weight) or saline (0.1 ml/10 g body weight; control) was injected intraperitoneally.
Enterostatin Effect on Glucose Tolerance Tests: For glucose tolerance tests, mice were fasted overnight (18 hours). Enterostatin (5 or 25 ug/mouse in 0.1 ml saline vehicle) or saline vehicle was injected intraperitoneally (ip) 20 minutes before an intraperitoneal injection of glucose (1.0 mg/gm body weight). Blood samples were taken from the tail vein immediately before glucose administration, and then at 15, 30, 45 and 60 min after glucose injection. […]

C57B1/6 male mice [2] = assay: Fasting blood glucose after enterostatin injection; assay type: in vivo, mouse
Experimental: as §1, §2
Enterostatin Effect on Fasting Blood Glucose. To directly test the effect of enterostatin on blood glucose, mice were fasted for 18 hours, and enterostatin (25 μg/mouse) or 0.1 ml saline vehicle was injected intraperitoneally at zero time. Blood samples were taken from the tail vein at 15, 30, 45 and 60 min after enterostatin injection. The blood samples were assayed for glucose using a glucometer.

AMPK [3] = assay: pAMPK Western blot in HepG2 cells, 15 min incubation; assay type: cell-based, human
Experimental: Human liver cells (HepG2 cell line, American Type Culture Collection, Manassas, Va.) were grown and maintained in Dulbecco's modified eagle's medium (Gibco, Carlsbad, Calif.) containing 10% fetal bovine serum, penicillin (100 I.U./ml), and streptomycin (100 μg/ml). The cells were then incubated for 15 min with 5 mM glucose and various concentrations of enterostatin (0.003, 0.01, 0.1, 1, and 3 μM) and/or of its antagonist β-casomorphin (BCM) (0.003, 0.01, 0.1, 1, and 3 μM). After incubation, the cells were lysed and the cytosolic proteins subjected to Western blot analysis for AMPK and pAMPK. The results for pAMPK activity are shown in FIG. 5A (enterostatin) and FIG. 5B (BCM). […] This effect was blocked by the presence of an antibody to the enterostatin receptor (anti F1-ATPase beta subunit).

AMPK [4] = assay: pAMPK Western blot in HepG2 cells, 60 min incubation; assay type: cell-based, human; conditions: HepG2, one hour incubation
Experimental: (§3) In a second experiment, human liver cells (HepG2 cell line, American Type Culture Collection, Manassas, Va.) were grown and maintained in Dulbecco's modified eagle's medium (Gibco, Carlsbad, Calif.) containing 10% fetal bovine serum, penicillin (100 I.U./ml), and streptomycin (100 μg/ml). The cells were then incubated for 60 min with 5 mM glucose and various concentrations of enterostatin (0.001, 0.01, 0.03, 0.1, 1.0 μM). After incubation, the cells were lysed and the cytosolic proteins subjected to Western blot analysis for pAMPK and PKARIIβ.

PKARIIβ = PKARIIβ Western blot in HepG2 cells, 60 min incubation; assay type: cell-based, human; conditions: HepG2, one hour incubation
Experimental: as §3

[5] = system: SK-N-MC neuroepithelioma cells; conditions: cited from earlier work
[6] = target: T1, beta subunit of ATP synthase (Homo sapiens, UniProt P06576); conditions: receptor protein on liver plasma membranes; cited from earlier work
T1 construct: from tissue; host or cells: liver plasma membranes

rats = conditions: cited from earlier work
rabbits = conditions: single-choice diet; cited from earlier work
sheep = conditions: single-choice diet; cited from earlier work
baboons = conditions: single-choice diet; cited from earlier work
humans = conditions: cited from earlier work
islet cells = conditions: cited from earlier work
galanin receptors = conditions: cited from earlier work
[7] = target: T2, cholecystokinin A receptors (Homo sapiens, UniProt P32238); conditions: cited from earlier work
T2 sequence (P32238 1-428): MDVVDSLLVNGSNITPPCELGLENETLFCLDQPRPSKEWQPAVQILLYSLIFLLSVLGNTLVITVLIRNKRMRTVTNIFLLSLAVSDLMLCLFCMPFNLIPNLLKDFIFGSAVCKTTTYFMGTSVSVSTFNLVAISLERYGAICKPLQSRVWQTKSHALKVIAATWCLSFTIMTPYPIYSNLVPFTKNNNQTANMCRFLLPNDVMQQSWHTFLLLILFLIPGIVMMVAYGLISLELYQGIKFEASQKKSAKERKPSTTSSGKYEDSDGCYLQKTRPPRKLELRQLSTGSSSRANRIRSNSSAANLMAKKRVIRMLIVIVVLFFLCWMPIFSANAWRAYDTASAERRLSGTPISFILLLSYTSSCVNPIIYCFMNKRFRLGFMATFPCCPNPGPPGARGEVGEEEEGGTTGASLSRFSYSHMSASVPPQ

[8] = peripheral and central administration; cited from earlier work

T1 sequence (P06576 48-529): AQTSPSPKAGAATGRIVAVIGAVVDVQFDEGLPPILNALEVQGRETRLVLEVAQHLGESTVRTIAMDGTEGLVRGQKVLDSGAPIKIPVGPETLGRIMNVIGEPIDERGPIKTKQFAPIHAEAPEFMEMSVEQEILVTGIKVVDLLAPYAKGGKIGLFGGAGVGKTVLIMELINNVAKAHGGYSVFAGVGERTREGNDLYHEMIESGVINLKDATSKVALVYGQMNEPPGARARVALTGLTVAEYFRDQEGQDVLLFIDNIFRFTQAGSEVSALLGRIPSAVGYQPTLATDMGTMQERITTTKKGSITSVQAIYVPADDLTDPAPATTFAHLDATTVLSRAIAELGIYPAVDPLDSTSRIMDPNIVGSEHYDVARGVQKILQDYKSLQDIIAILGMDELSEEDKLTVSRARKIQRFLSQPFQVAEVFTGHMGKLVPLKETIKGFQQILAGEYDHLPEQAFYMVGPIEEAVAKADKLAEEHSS
T1 sequence (P25705 44-553 partner): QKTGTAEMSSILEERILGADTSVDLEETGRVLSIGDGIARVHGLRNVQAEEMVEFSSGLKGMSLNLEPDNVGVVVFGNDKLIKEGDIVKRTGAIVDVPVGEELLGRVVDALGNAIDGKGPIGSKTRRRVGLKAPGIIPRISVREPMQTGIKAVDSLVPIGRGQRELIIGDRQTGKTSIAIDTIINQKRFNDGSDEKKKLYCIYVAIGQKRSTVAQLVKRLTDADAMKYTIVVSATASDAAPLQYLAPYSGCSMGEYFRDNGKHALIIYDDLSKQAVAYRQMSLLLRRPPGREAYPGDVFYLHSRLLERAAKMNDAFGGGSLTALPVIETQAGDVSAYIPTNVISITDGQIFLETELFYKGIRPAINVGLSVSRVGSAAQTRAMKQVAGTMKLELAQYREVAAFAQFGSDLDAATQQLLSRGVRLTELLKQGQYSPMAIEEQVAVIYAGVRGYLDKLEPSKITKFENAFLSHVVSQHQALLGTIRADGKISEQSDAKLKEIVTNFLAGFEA
T1 sequence (P36542 26-298 partner): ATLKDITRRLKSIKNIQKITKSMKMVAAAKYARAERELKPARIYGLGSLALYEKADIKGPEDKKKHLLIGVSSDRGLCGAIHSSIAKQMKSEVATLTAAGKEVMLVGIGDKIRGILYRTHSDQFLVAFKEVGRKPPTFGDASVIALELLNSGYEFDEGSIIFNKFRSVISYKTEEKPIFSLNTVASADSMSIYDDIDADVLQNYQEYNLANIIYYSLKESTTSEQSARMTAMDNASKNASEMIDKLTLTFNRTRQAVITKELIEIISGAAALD
T1 sequence (P30049 23-168 partner): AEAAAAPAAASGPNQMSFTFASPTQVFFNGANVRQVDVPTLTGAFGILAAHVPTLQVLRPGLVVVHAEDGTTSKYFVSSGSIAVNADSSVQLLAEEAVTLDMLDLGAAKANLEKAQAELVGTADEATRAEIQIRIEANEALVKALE
T1 sequence (P56381 2-51 partner limits assumed): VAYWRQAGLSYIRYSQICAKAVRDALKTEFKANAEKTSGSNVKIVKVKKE

Enterostatin: aminoterminal pentapeptide of procolipase released when procolipase is converted into colipase (VPDPR; printed: Val-Pro-Asp-Pro-Arg)
Clearance of blood glucose (C57B1/6 male mice [1]; 5 μg/mouse ip 20 min before glucose 1.0 mg/gm): no differences
Clearance of blood glucose (C57B1/6 male mice [1]; 25 μg/mouse ip 20 min before glucose 1.0 mg/gm): no differences
Blood glucose levels compared to saline control (C57B1/6 male mice [2]; 25 μg/mouse ip, 18 h fasted): rapid increase in blood glucose levels
Increase in blood glucose versus saline vehicle (C57B1/6 male mice [2]; 25 μg/mouse ip, at 15 and 30 min): significantly greater
Duration of raised glucose levels after injection (C57B1/6 male mice [2]; injection into mice): remained high for up to an hour after injection
Time to increase in blood glucose levels after injection (C57B1/6 male mice [2]; injection into mice): ≤ 15 min
Effect on pAMPK in presence of antibody anti F1-ATPase beta subunit (AMPK [3]; HepG2, 15 min, 5 mM glucose): blocked
AMPkinase activity shown by pAMPK (AMPK [3]; HepG2, 15 min, 5 mM glucose, 0.003-3 μM): inhibited AMPkinase
β-casomorphin stimulation of pAMPK levels (AMPK [3]; HepG2, enterostatin 0.01, 0.1 and 1.0 uM with β-casomorphin): reversed dose-dependently
Dose of peak effect on pAMPK (AMPK [4]): 0.01 μM
pAMPK levels (AMPK [4]; 5 mM glucose): increase in pAMPK levels
Dose of peak increase in PKARIIβ (PKARIIβ): 10 nM
PKARIIβ (PKARIIβ; 5 mM glucose): increase in PKARIIβ
Kd [5]: 40 nM
Kd [6]: 2.5 nM
Fat deposition and body weight gain (rats; chronic icv, HF diets): reduction in fat deposition and body weight gain
Daily intake of dietary fat (rats; chronic icv, single-choice HF or two-choice HF/LF diet): attenuated the daily intake of dietary fat
Energy intake or change in body weight gain (rats; chronic treatment, low-fat diet for seven days): no significant reduction
Food intake (rabbits): reduce food intake
Food intake (sheep): reduce food intake
Food intake (baboons): reduce food intake
Food intake (humans): not been found to reduce food intake
Subjective feeling of hunger (humans; intravenous injection): reduce the subjective feeling of hunger
Insulin secretion stimulated by glybenclamide (islet cells; glybenclamide 5.0 and 10 μM): inhibited insulin secretion
Intracellular cyclic AMP content (islet cells; increase produced by U50,488 100 nM): reduced the increase in intracellular cyclic AMP content
Insulin secretion (islet cells; islets, 16.7 mM glucose, 10^−9 to 10^−5 M, dose-dependent): inhibited insulin secretion
Doses inhibiting insulin secretion (islet cells; isolated pancreatic islets): 10^−10 to 10^−6 M
Insulin secretion stimulated by U50,488 (islet cells; kappa-opioid agonist U50,488 100 nM): inhibited insulin secretion
Insulin secretion stimulated by TPA (islet cells; phorbol 12-myristate-13-acetate 50 and 100 nM): inhibited insulin secretion
Binding (galanin receptors): not to bind
Binding [7]: not to bind
Insulin levels [8]: reduction in insulin levels
Plasma glucose [8]: without any changes in plasma glucose

Source: patent US20100267629A1, “Enterostatin as Therapeutic Agent for Hypoglycemia” (Board of Supervisors of Louisiana State University and …, priority 2006, published 2010)
